In patent US20240174638A1, “HETEROARYL DERIVATIVES AS APELIN RECEPTOR AGONISTS” (RESEARCH TRIANGLE INSTITUTE, priority 2021, published 2024):

Key:
[1] = tested on: LAD-ligated male C57BI/6 mice (myocardial infarction); test: Cardiac function after coronary artery (LAD) ligation, echocardiography; assay type: in vivo, mouse
Excerpt: Adult male C57BI/6 mice, 3 months old, were purchased from Jackson Laboratories and acclimated for 3 or more days in standard housing. All mice underwent twice daily intra-gastric administration of physiologic saline for 7 days pre-operatively (acclimation period). They also underwent standard B- and M-mode echocardiographic (ECHO) imaging (VisualSonics Vevo 2100) of the left heart under conscious restraint, 1-5 days prior to surgery.
Under ketamine/xylazine anesthesia, mice were intubated and ventilated, then incised through the left thoracic wall between the 3rd and 4th ribs to expose the heart. For ligation of the left anterior descending coronary artery (LAD), an 8-0 nylon suture was inserted under microscopic view (Wild/Leica operating microscope), placing and tying the ligature at a point 1 mm distal to the point where the artery emerges from the edge of the left atrium. Confirmation was provided by clear blanching of the downstream ventricle wall. Control sham-treated mice underwent needle and 8-0 suture passage under the coronary artery but with suture removal without ligation. The wound was closed with 6-0 suture in two layers (muscle and skin, respectively) and mice were recovered on a warming blanket. They received buprenorphine intraoperatively and twice daily postoperatively for 48 hours, by subcutaneous injection (50 ug/kg body weight).
A total of 48 mice entered the study. Eight mice underwent sham surgery, and these mice received vehicle treatment after surgery. 40 mice underwent LAD ligation, with 20 in each treatment group. Treatment was by oral gavage (intra-gastric administration) at 10 mL/kg body weight, twice daily (7-9 am and 4-6 pm), starting 1-2 hours after surgery and continuing until study termination. Treatment was either with EXAMPLE 22 at a concentration of 3 mg/mL (30 mg/kg) or vehicle for the test agent.
Echocardiography was done under brief, conscious restraint using a VisualSonics Vevo 2100 ultrasound machine, pre-operatively and at 2 and 4 weeks postoperatively. Standard B-mode and M-mode ultrasound imaging was captured at each imaging session. Echocardiographic images were analyzed for left ventricular function, measuring the interventricular septal thickness, internal ventricular cavity dimension, and posterior wall thickness at both diastole and systole from M-mode images at the level of the papillary muscles. The left ventricle ejection fraction and fractional shortening were calculated from these values:
Ejection Fraction (%)=100×[LVIDd^3−LVIDs^3]/LVIDd^3Fractional Shortening (%)=100×[LVIDd−LVIDs]/LVIDd, • where LVID=left ventricle inner diameter (internal ventricular cavity dimension), d=diastole, s=systole
After the 4-week ECHO imaging, mice were anesthetized and a terminal blood draw was taken from the abdominal aorta into 3.8% citrate (9:1), and the plasma was obtained by centrifugation and frozen. Mice were then euthanized (anesthesia overdose followed by cervical dislocation) and the hearts were weighed and the area of infarction was visually measured with t ruler for cranial-caudal and for lateral axes lengths of the approximately oval infarction zone (ligated hearts only). The hearts, and both kidneys, were then immersion-fixed in neutral-buffered formalin for subsequent histopathological evaluation. Plasma, kidney, and heart specimens were returned to Study Sponsor for further evaluation. The time between the last drug dosing and the blood draw was recorded, for future dose-response evaluation by Study Sponsor.
Summary statistics by “treatment” were provided for the change from baseline to week 2 and change from baseline to week 4 where baseline was defined as the pre-echos time-point. For each parameter, the mean “treatment” difference between “Example 22” and “Vehicle” was analyzed using a 2-sample t-test. The analysis was conducted using SAS Version 9.4 via PROC TTEST under unequal variances for the “treatments” using the Satterthwaite method. […]

Human plasma protein = conditions: 6 h, 1 μM
in vitro = conditions: rat, pH 7.4
[2] = Ex 22 vs Vehicle, LAD-ligated mice, 30 mg/kg p.o. twice daily
[3] = LAD-ligated mice, 30 mg/kg p.o. twice daily

O=C(O)C[C@H](CCN1CCCC(F)(F)C1)NC(=O)c1cc(-c2ccccc2C(F)(F)F)n(-c2nccs2)n1 [Example 22, (3S)-5-(3,3-difluoropiperidin-1-yl)-3-{[1-(1,3-thiazol-2-yl)-5-[2-(trifluoromethyl)phenyl]-1H-pyrazol-3-yl]formamido}pentanoic acid]
deaths in ligated group ([1]; 30 mg/kg p.o. twice daily, deaths between 3 and 11 days postoperatively, vehicle 7/20): 2/20
ejection fraction ([1]; 4 weeks post-treatment): Statistically significant improvement
EF, Change from baseline, Week 2, Difference [1, 2]: 4.81%
EF, Change from baseline, Week 4, Difference [1, 2]: 10.70%
FS, Change from baseline, Week 2, Difference [1, 2]: 4.21%
FS, Change from baseline, Week 4, Difference [1, 2]: 7.17%
Heart Rate, Change from baseline, Week 2, Difference [1, 2]: 11.43
Heart Rate, Change from baseline, Week 4, Difference [1, 2]: −6.42
IVS d, Change from baseline, Week 2, Difference [1, 2]: 0.40
IVS d, Change from baseline, Week 4, Difference [1, 2]: 0.49
IVS s, Change from baseline, Week 2, Difference [1, 2]: 0.47
IVS s, Change from baseline, Week 4, Difference [1, 2]: 0.56
LV Mass corrected, Change from baseline, Week 2, Difference [1, 2]: 18.64
LV Mass corrected, Change from baseline, Week 4, Difference [1, 2]: 7.38
LV Mass, Change from baseline, Week 2, Difference [1, 2]: 23.30
LV Mass, Change from baseline, Week 4, Difference [1, 2]: 9.23
LV VoI d, Change from baseline, Week 2, Difference [1, 2]: −5.56
LV VoI d, Change from baseline, Week 4, Difference [1, 2]: −29.03
LV VoI s, Change from baseline, Week 2, Difference [1, 2]: −1.67
LV VoI s, Change from baseline, Week 4, Difference [1, 2]: −22.79
LVID d, Change from baseline, Week 2, Difference [1, 2]: −0.23
LVID d, Change from baseline, Week 4, Difference [1, 2]: −0.70
LVID s, Change from baseline 2, Week 2, Difference [1, 2]: −0.22
LVID s, Change from baseline, Week 4, Difference [1, 2]: −0.74
LVPW d, Change from baseline, Week 2, Difference [1, 2]: 0.03
LVPW d, Change from baseline, Week 4, Difference [1, 2]: 0.20
LVPW s, Change from baseline, Week 2, Difference [1, 2]: 0.09
LVPW s, Change from baseline, Week 4, Difference [1, 2]: 0.38
Weight, Change from baseline, Week 2, Difference [1, 2]: 0.21
Weight, Change from baseline, Week 4, Difference [1, 2]: 0.26
EF, Change from baseline, Week 2, Mean [1, 3]: −34.17%
EF, Change from baseline, Week 2, Median [1, 3]: −36.15%
EF, Change from baseline, Week 4, Mean [1, 3]: −38.46%
EF, Change from baseline, Week 4, Median [1, 3]: −37.79%
FS, Change from baseline, Week 2, Mean [1, 3]: −25.71%
FS, Change from baseline, Week 2, Median [1, 3]: −27.07%
FS, Change from baseline, Week 4, Mean [1, 3]: −28.24%
FS, Change from baseline, Week 4, Median [1, 3]: −28.24%
Heart Rate, Change from baseline, Week 2, Mean [1, 3]: 20.04
Heart Rate, Change from baseline, Week 2, Median [1, 3]: 40.66
Heart Rate, Change from baseline, Week 4, Mean [1, 3]: 4.65
Heart Rate, Change from baseline, Week 4, Median [1, 3]: 11.40
IVS d, Change from baseline, Week 2, Mean [1, 3]: −0.03
IVS d, Change from baseline, Week 2, Median [1, 3]: 0.02
IVS d, Change from baseline, Week 4, Mean [1, 3]: 0.10
IVS d, Change from baseline, Week 4, Median [1, 3]: 0.12
IVS s, Change from baseline, Week 2, Mean [1, 3]: −0.17
IVS s, Change from baseline, Week 2, Median [1, 3]: −0.24
IVS s, Change from baseline, Week 4, Mean [1, 3]: −0.02
IVS s, Change from baseline, Week 4, Median [1, 3]: 0.11
LV Mass corrected, Change from baseline, Week 2, Mean [1, 3]: 54.81
LV Mass corrected, Change from baseline, Week 2, Median [1, 3]: 63.28
LV Mass corrected, Change from baseline, Week 4, Mean [1, 3]: 66.14
LV Mass corrected, Change from baseline, Week 4, Median [1, 3]: 66.57
LV Mass, Change from baseline, Week 2, Mean [1, 3]: 68.51
LV Mass, Change from baseline, Week 2, Median [1, 3]: 79.11
LV Mass, Change from baseline, Week 4, Mean [1, 3]: 82.67
LV Mass, Change from baseline, Week 4, Median [1, 3]: 83.21
LV VoI d, Change from baseline, Week 2, Mean [1, 3]: 39.76
LV VoI d, Change from baseline, Week 2, Median [1, 3]: 38.79
LV VoI d, Change from baseline, Week 4, Mean [1, 3]: 53.15
LV VoI d, Change from baseline, Week 4, Median [1, 3]: 51.79
LV VoI s, Change from baseline, Week 2, Mean [1, 3]: 33.74
LV VoI s, Change from baseline, Week 2, Median [1, 3]: 33.90
LV VoI s, Change from baseline, Week 4, Mean [1, 3]: 45.96
LV VoI s, Change from baseline, Week 4, Median [1, 3]: 39.02
LVID d, Change from baseline, Week 2, Mean [1, 3]: 1.11
LVID d, Change from baseline, Week 2, Median [1, 3]: 1.09
LVID d, Change from baseline, Week 4, Mean [1, 3]: 1.36
LVID d, Change from baseline, Week 4, Median [1, 3]: 1.45
LVID s, Change from baseline 2, Week 2, Mean [1, 3]: 1.62
LVID s, Change from baseline 2, Week 2, Median [1, 3]: 1.69
LVID s, Change from baseline, Week 4, Mean [1, 3]: 1.93
LVID s, Change from baseline, Week 4, Median [1, 3]: 1.92
LVPW d, Change from baseline, Week 2, Mean [1, 3]: 0.09
LVPW d, Change from baseline, Week 2, Median [1, 3]: 0.13
LVPW d, Change from baseline, Week 4, Mean [1, 3]: −0.00
LVPW d, Change from baseline, Week 4, Median [1, 3]: 0.00
LVPW s, Change from baseline, Week 2, Mean [1, 3]: −0.29
LVPW s, Change from baseline, Week 2, Median [1, 3]: −0.30
LVPW s, Change from baseline, Week 4, Mean [1, 3]: −0.39
LVPW s, Change from baseline, Week 4, Median [1, 3]: −0.35
Weight, Change from baseline, Week 2, Mean [1, 3]: −0.13
Weight, Change from baseline, Week 2, Median [1, 3]: −0.30
Weight, Change from baseline, Week 4, Mean [1, 3]: 0.89
Weight, Change from baseline, Week 4, Median [1, 3]: 0.70
cardiac function after MI ([1]; compared to vehicle treated animals, 30 mg/kg p.o. twice daily): improved cardiac fraction
% Protein Bound Rep 1 (Human plasma protein): 36.79%
% Protein Bound Rep 2 (Human plasma protein): 90.21%
% Protein Bound Rep 3 (Human plasma protein): 87.89%
Buffer Concentration Rep 1 (Human plasma protein): 80.7 nM
Buffer Concentration Rep 2 (Human plasma protein): 70.2 nM
Buffer Concentration Rep 3 (Human plasma protein): 81.2 nM
Mean % Protein Bound (Human plasma protein): 88.29%
Plasma Concentration Rep 1 (Human plasma protein): 611.0 nM
Plasma Concentration Rep 2 (Human plasma protein): 717.1 nM
Plasma Concentration Rep 3 (Human plasma protein): 670.6 nM
recovery at 6 h, 1 μM (in vitro): 72.7%
